Test results from article PMC5908160, “Inhibition of sperm motility in male macaques with EP055, a potential non-hormonal male contraceptive” (PLoS ONE, 2018).

Columns and labels:
EPPIN = EPPIN (Homo sapiens, UniProt O95925); assay: AlphaScreen assay of a-EAb binding to EPPIN; conditions: n = 4, read-out: IC50, inhibition of a-EAb binding to EPPIN
Description: The AlphaScreen® assay was carried as previously described. Briefly, recombinant histidine-tagged recombinant EPPIN was pre-incubated with Ni-NTA chelate donor beads (catalog number AS101, Perkin Elmer, Waltham MA) and anti-Eppin 007 antibody was pre-incubated with Protein A acceptor beads (catalog number 6760136, Perkin Elmer, Waltham MA) for 30 minutes. Equal volumes of donor and acceptor bead mixtures were pipetted into white opaque 384-well microplates (OptiPlate-384; PerkinElmer, Waltham, MA) in a final volume of 30 μL. Plates were covered with top seal and transferred to a Synergy 2 Multiplatform automated plate reader (Biotek, Winooski, VT). After shaking for 2 min, plates were read with an excitation 680/30 filter, an emission 570/100 filter and data acquired using Gen5 software (Biotek). Each set of samples was pipetted in 4 replicates. […] A specific signal for each time point was calculated by subtracting the background signal (obtained in the absence of EPPIN) from its respective total signal. […] Non-specific interactions of compound with assay components were measured at the same time with the IgG detection kit ([…] biotinylated rabbit IgG) to generate the bead interaction: 10 μg/ml donor and acceptor beads. […]

[1] = EP054/EP055 plasma half-life in cynomolgus male macaques; parameters: species or system Macaca fascicularis; conditions: cynomolgus monkey, in vivo, iv, 1 mg/kg, summary of both studies
Description: Half-life measurements for EP054/EP055 were done by Sinclair Research Center, LLC (SRC) (Study No. S14109, Auxvasse, MO). This study was reviewed and approved by the Sinclair IUCAC committee and complied with all applicable sections of USDA Policy 12 and the Final Rules of the Animal Welfare Act regulation (9 CFR). This study used 3 naïve cynomolgus (Macaca fascicularis) males (3-4 yrs old, 4 kg or less). Doses of EP054 in 3% DMSO-PBS, pH 7.6 were infused by i.v. at 1.0 mg/kg. The infusion rate was 4 ml/min. Plasma samples were collected at 0, 5, 15, 30 min and 1, 4, 8 and 24 hours, and immediately frozen on dry ice. Samples were stored at -80 °C until processing.
Sample preparation and LC-MS/MS analysis were done by OpAns LLC (Durham, NC). Plasma samples (both rat and macaque) were thawed at room temperature and processed by adding 160 µL of methanol (including 10 µL internal standard) to 25 µL of the sample. Samples were vortexed for 5 minutes, centrifuged at 2684 x g for 5 minutes. 50 µL of supernatant was removed for analysis by HPLC-MS/MS.
Therefore, samples were analyzed for the presence of EP055.

EPPIN, sequence (O95925 22-133): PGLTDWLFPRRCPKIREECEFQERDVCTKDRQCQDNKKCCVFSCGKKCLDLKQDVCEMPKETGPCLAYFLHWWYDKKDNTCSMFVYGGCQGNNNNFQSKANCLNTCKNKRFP

COC(=O)NNc1nc(Nc2ccc(NC(C)=O)c(O)c2)nc(SCC(=O)O)n1 [EP055]
IC50 (EPPIN): 1.12 mM | half-life [1]: 10 to 12 min
